This is an account of results in patent US8557849B2 (priority 2008, dated 2013).

The first series can be described thus: Measurement of logP values by HPLC on reversed phase columns (EEC directive 79/831 Annex V.A8). To be noted: method [a]: pH 2.3 with 0.1% phosphoric acid and acetonitrile as eluent. The series is classed as physicochemical. The method, then: Measurement of logP values was performed according EEC directive 79/831 Annex V.A8 by HPLC (High Performance Liquid Chromatography) on reversed phase columns with the following methods: • ^[a] Measurement was done at pH 2.3 with 0.1% phosphoric acid and acetonitrile as eluent. • ^[b] measurement of LC-MS was done at pH 2.7 with 0.1% formic acid in water and with acetonitrile (contains 0.1% formic acid) as eluent with a linear gradient from 10% acetonitrile to 95% acetonitrile. • ^[c] Measurement with LC-MS was done at pH 7.8 with 0.001 molar ammonium hydrogen carbonate solution in water as eluent with a linear gradient from 10% acetonitrile to 95% acetonitrile.
Consider `CC(ON=C(c1ccccc1)c1nnnn1C)c1csc(C#CCCCc2ccccc2)n1` (stereo not shown) [Example 3], for which the log p is 5.08^[a]. On to `CC(ON=C(c1ccccc1)c1nnnn1C)c1csc(C#CCC2CCCC2)n1` (stereo not shown) [Example 4], for which the log p was 5.23^[a]. With `CC(ON=C(c1ccccc1)c1nnnn1C)c1csc(C#CCC2CCCCC2)n1` (stereo not shown) [Example 5], the log p is 5.65^[a].

On to `CCCCC#Cc1nc(C(C)ON=C(c2ccccc2)c2nnnn2C)cs1` (stereo not shown) [Example 6], for which the log p was 4.73^[a].

On to `Cn1nnnc1C(=NOCCc1csc(Br)n1)c1ccccc1` [Example 7], for which the log p was 3.25^[a].

As for `Cn1nnnc1C(=NOCCc1csc(C#CC2CC2)n1)c1ccccc1` [Example 8], the log p was 3.69^[a].

Take `CCCCC#Cc1nc(CCON=C(c2ccccc2)c2nnnn2C)cs1` [Example 9]: the log p is 4.46^[a].

The series is the same for the next values; noted with them: method [b]: LC-MS at pH 2.7 with 0.1% formic acid in water and acetonitrile, linear gradient 10% to 95% acetonitrile.
As for `Cn1nnnc1C(=NOC(=O)c1ccccn1)c1ccccc1` [Example 10], the log p was 2.13^[b]. Still for that read-out and setting: under `CC(ON=C(c1ccccc1)c1nnnn1C)c1ccccn1` (stereo not shown) [Example 11] stands 2.19^[b]; under `CC(ON=C(c1ccccc1)c1nnnn1C)c1cccc(N)n1` (stereo not shown) [Example 12], 1.34^[b]; under `CC(C)CC(=O)Nc1cccc(C(C)O/N=C(/c2ccccc2)c2nnnn2C)n1` (stereo not shown) [Example 13], 3.53^[b]. In the case of `CCCCCC(=O)Nc1cccc(C(C)O/N=C(\c2ccccc2)c2nnnn2C)n1` (stereo not shown) [Example 14], the log p is 3.83^[b]. The same measure, in the same setting: under `CCCCCOC(=O)Nc1cccc(C(C)O/N=C(\c2ccccc2)c2nnnn2C)n1` (stereo not shown) [Example 15] stands 4.41^[b]. With `CCCCCC(=O)Nc1cccc(C(C)O/N=C(/c2ccccc2)c2nnnn2C)n1` (stereo not shown) [Example 17], the log p was 3.96^[b]. For the compound `CCCCCOC(=O)Nc1cccc(C(C)O/N=C(/c2ccccc2)c2nnnn2C)n1` (stereo not shown) [Example 18], the log p was 4.54^[b].

Staying with this series, now noted: reversed phase HPLC column, pH 2.7; HCOOH; given in preparation examples; read-out: logP(HCOOH).
Take `CC(O)c1csc(N)n1` (stereo not shown) [1-(2-amino-1,3-thiazol-4-yl)ethanol]: the chromatographic logP was -0.16. Take `CC(O)c1csc(Br)n1` (stereo not shown) [1-(2-bromo-1,3-thiazol-4-yl)ethanol]: the chromatographic logP came out at 1.1. Consider `CC(Br)c1csc(Br)n1` (stereo not shown) [2-bromo-4-(1-bromoethyl)-1,3-thiazole], for which the chromatographic logP worked out at 2.61.

For `CC(ON=C(c1ccccc1)c1nnnn1C)c1csc(Br)n1` (stereo not shown) [Example 1], the chromatographic logP stood at 3.44.

With `CC(ON=C(c1ccccc1)c1nnnn1C)c1csc(C#CC2CC2)n1` (stereo not shown) [Example 2, N-{1-[2-(cyclopropylethynyl)-1,3-thiazol-4-yl]ethoxy}-1-(1-methyl-1H-tetrazol-5-yl)-1-phenylmethanimine], the chromatographic logP was 3.89. Turning to `CC(ON=C(c1ccccc1)c1nnnn1C)c1cccc(N)n1` (stereo not shown) [Example 16, 6-[1-({[(1-methyl-1H-tetrazol-5-yl)(phenyl)methylene]amino}oxy)ethyl]pyridin-2-amine], the chromatographic logP is 1.21. As to `CC(ON=C(c1ccccc1)c1nnnn1C)c1cccc(NC(=O)C(C)(C)C)n1` (stereo not shown) [Example 19, 2,2-dimethyl-N-{6-[1-({[(1-methyl-1H-tetrazol-5-yl)(phenyl)methylene]amino}oxy)ethyl]pyridin-2-yl}propanamide], the chromatographic logP is 3.64. On the same count and under the same terms, under `CC(ON=C(c1ccccc1)c1nnnn1C)c1cccc(NC(=O)OC(C)(C)C)n1` (stereo not shown) [Example 20, tert-butyl {6-[1-({[(1-methyl-1H-tetrazol-5-yl)(phenyl)methylene]amino}oxy)ethyl]pyridin-2-yl}carbamate] stands 4.09; under `CC(C)(C)C(=O)Nc1cccc(Br)n1` [N-(6-bromopyridin-2-yl)-2,2-dimethylpropanamide], 2.84. For the compound `CC(Br)c1cccc(NC(=O)C(C)(C)C)n1` (stereo not shown) [N-[6-(1-bromoethyl)pyridin-2-yl]-2,2-dimethylpropanamide], the chromatographic logP was determined as 3.05.

For `CC(O)c1cccc(NC(=O)C(C)(C)C)n1` (stereo not shown) [N-[6-(1-hydroxyethyl)pyridin-2-yl]-2,2-dimethylpropanamide], the chromatographic logP was 1.08.

Staying with this series, now noted: reversed phase HPLC column; method [a]: pH 2.3 with 0.1% phosphoric acid and acetonitrile as eluent; read-out: log p.
Regarding `CC(ON=C(c1ccccc1)c1nnnn1C)c1csc(Br)n1` (stereo not shown) [Example 1], the chromatographic logP worked out at 3.44.

As for `CC(ON=C(c1ccccc1)c1nnnn1C)c1csc(C#CC2CC2)n1` (stereo not shown) [Example 2, N-{1-[2-(cyclopropylethynyl)-1,3-thiazol-4-yl]ethoxy}-1-(1-methyl-1H-tetrazol-5-yl)-1-phenylmethanimine], the chromatographic logP was 3.89.
